Source: patent US9828381B2, “Substituted pyrazolopyrimidines and method of use” (AbbVie Deutschland GmbH & Co. KG, priority 2015, dated 2017)

These compounds were tested against GABA-B receptor (Rattus norvegicus (Rat), UniProt O88871+Q9Z0U4) (assay: [35S]GTPgS binding assay, rat cortical membranes, in presence of EC25 GABA). Conditions: rat brain cortex membranes; in presence of 1 μM GABA (EC25); positive allosteric modulation.
Format: biochemical
Procedure: Preparation of Rat Brain Membranes for Native Receptor Assays
Membranes from rat brain cortex were prepared as described in detail by Olpe et al. and stored at concentrations of 1.66 mg/mL protein at −80° C. until required. (Olpe, H.-R, et al. Eur J Pharmacol 1990; 187: 27-38).
[^35S] GTPgS Binding Assay
The composition of the assay mixtures [in a final volume of 200 μL in 96-well U-bottom plates (Greiner) was as follows: 50 mM Tris-HCl buffer, pH 7.7, 10 mM MgCl2, 0.2 mM EGTA, 2 mM CaCl2, 100 mM NaCl, 20 µM guanosine 5′-diphosphate (Sigma), 0.3 nM [^35S]GTPgS (1250 Ci/mmol (PerkinElmer)), and the test compounds at increasing concentrations (from 10 nM up to […]), […] of rat cortical membranes, and a concentration of […], that has been observed in previous experiments to correspond to the EC25, a concentration that gives 25% of the maximal response of GABA. The samples were incubated at room temperature for 60 minutes on a shaker. The incubation was stopped by rapid vacuum filtration over glass-fiber filter plates (UniFilter-96 well, GF/B membrane plates, PerkinElmer) using a 96-well plate harvester (TOMTEK© Harvester). The UniFilter plate was washed five times with ice-cold wash buffer (50 mM Tris-HCl buffer, pH 7.7, 10 mM MgCl2, and 100 mM NaCl. After filtration the plate was dried for 90 minutes at 55° C. The plates were closed on the bottom with black sealing membranes, and liquid scintillation cocktail (35 μL, Betaplate Scint, PerkinElmer) was added to each well. After sealing the top of the plate, an additional incubation step of 90 minutes at room temperature followed before measuring the plate. The amount of membrane-bound [^35S]GTPgS was measured using a 96-well plate reader (Microbeta®, PerkinElmer). Nonspecific binding was measured in the presence of unlabeled 10 μM of GTPgS (Millipore) and without GABA. Basal binding was measured in the absence of 1 μM GABA, and maximal binding was measured in the presence of GABA using 1 mM GABA concentrations.
Data analysis. The concentration-response curves of compounds of the present disclosure in the presence of EC25 of GABA-B receptor agonist were generated using the GraphPad Prism® program (GraphPad Software, San Diego, Calif.). Data was normalized using basal binding as 0% and maximal binding as 100%. The curves were fitted by nonlinear regression allowing determination of EC50 values from sigmoidal dose-response curves. Each curve was performed using triplicate sample per date point and 10 concentrations.

Sequence of GABA-B receptor (Q9Z0U4 17-960): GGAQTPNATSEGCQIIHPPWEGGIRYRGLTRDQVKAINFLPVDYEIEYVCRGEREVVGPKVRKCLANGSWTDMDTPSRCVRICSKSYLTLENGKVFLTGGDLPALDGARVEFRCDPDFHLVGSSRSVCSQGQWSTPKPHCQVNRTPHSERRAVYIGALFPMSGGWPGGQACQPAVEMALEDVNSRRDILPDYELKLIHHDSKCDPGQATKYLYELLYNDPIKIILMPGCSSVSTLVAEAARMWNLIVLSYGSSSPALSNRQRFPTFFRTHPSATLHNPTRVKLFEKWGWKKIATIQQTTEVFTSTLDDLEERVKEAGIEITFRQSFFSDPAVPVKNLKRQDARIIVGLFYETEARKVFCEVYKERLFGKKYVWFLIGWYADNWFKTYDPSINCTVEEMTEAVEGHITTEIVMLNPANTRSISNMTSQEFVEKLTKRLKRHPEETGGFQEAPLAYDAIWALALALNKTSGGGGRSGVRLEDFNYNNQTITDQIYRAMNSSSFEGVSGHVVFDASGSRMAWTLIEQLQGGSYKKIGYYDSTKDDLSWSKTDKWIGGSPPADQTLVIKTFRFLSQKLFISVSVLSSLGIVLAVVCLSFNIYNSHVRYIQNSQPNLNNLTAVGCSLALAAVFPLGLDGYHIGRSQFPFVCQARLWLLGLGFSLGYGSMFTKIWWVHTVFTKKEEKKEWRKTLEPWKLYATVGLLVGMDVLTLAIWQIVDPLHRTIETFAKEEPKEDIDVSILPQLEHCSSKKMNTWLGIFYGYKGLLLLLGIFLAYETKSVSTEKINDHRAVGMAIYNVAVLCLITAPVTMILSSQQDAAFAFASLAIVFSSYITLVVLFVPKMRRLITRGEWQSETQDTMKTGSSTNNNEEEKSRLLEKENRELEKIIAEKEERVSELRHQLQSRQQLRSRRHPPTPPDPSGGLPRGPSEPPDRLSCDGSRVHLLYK
Sequence of GABA-B receptor (O88871 41-940): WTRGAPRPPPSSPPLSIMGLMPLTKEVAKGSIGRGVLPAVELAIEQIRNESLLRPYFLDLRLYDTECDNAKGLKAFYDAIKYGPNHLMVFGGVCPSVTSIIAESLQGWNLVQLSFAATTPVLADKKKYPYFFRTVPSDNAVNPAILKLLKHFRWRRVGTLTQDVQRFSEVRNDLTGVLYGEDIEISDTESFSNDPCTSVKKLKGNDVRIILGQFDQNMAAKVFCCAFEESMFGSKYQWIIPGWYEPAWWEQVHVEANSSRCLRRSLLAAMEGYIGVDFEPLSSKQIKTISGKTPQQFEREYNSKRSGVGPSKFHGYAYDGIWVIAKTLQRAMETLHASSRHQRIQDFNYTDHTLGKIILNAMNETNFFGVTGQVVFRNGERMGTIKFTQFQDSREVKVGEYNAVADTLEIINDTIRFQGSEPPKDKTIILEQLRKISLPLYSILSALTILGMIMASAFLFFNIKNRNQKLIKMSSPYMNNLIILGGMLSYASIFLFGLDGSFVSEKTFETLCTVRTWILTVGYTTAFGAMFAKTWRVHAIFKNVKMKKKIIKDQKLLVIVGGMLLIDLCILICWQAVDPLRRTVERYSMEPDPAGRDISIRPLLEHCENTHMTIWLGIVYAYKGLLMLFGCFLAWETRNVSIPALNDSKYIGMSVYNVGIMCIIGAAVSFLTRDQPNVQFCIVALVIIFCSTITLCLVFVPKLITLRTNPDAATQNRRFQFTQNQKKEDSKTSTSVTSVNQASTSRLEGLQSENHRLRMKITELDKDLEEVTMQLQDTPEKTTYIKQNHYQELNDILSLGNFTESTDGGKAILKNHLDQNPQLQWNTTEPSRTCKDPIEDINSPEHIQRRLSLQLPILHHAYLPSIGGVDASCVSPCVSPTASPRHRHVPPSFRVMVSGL

SMILES | EC50 [nM]
Cc1cc(N2CCC2)n2nc(C(C)c3ccc(Cl)cc3)cc2n1 (stereo not drawn) [Example 2-12, 7-(azetidin-1-yl)-2-[1-(4-chlorophenyl)ethyl]-5-methylpyrazolo[1,5-a]pyrimidine] | 2820
Cc1cc(N2CC3(CCOCC3)C2)n2nc(C(C)c3ccc(Cl)cc3)cc2n1 (stereo not drawn) [Example 2-13, 2-[1-(4-chlorophenyl)ethyl]-5-methyl-7-(7-oxa-2-azaspiro[3.5]non-2-yl)pyrazolo[1,5-a]pyrimidine] | 446
Cc1cc(NC2CC(F)C2)n2nc(C(C)c3ccc(Cl)cc3)cc2n1 (stereo not drawn) [Example 2-14, 2-[1-(4-chlorophenyl)ethyl]-N-(3-fluorocyclobutyl)-5-methylpyrazolo[1,5-a]pyrimidin-7-amine] | 165
CC[C@@H]1CN(c2cc(C)nc3cc(C(C)c4ccc(Cl)cc4)nn23)[C@H]1C(=O)O (stereo partly drawn) [Example 2-15, (2R,3R)-1-{2-[1-(4-chlorophenyl)ethyl]-5-methylpyrazolo[1,5-a]pyrimidin-7-yl}-3-ethylazetidine-2-carboxylic acid] | 3930
Cc1cc(NCC2CC(F)(F)C2)n2nc(C(C)c3ccc(Cl)cc3)cc2n1 (stereo not drawn) [Example 2-16, 2-[1-(4-chlorophenyl)ethyl]-N-[(3,3-difluorocyclobutyl)methyl]-5-methylpyrazolo[1,5-a]pyrimidin-7-amine] | 586
CC(=O)N[C@H]1CCN(c2cc(C)nc3cc(C(C)c4ccc(Cl)cc4)nn23)C1 (stereo partly drawn) [Example 2-17, N-[(3S)-1-{2-[1-(4-chlorophenyl)ethyl]-5-methylpyrazolo[1,5-a]pyrimidin-7-yl}pyrrolidin-3-yl]acetamide] | 2180
Cc1cc(N2CCC3(CCC3O)C2)n2nc(C(C)c3ccc(Cl)cc3)cc2n1 (stereo not drawn) [Example 2-20, 6-{2-[1-(4-chlorophenyl)ethyl]-5-methylpyrazolo[1,5-a]pyrimidin-7-yl}-6-azaspiro[3.4]octan-1-ol] | 93
Cc1cc(NC2CC(F)(F)C2)n2nc(C(C)c3ccc(Cl)cc3)cc2n1 (stereo not drawn) [Example 2-21, 2-(1-(4-chlorophenyl)ethyl)-N-(3,3-difluorocyclobutyl)-5-methylpyrazolo[1,5-a]pyrimidin-7-amine] | 394
CC[C@@H]1CCCCN1c1cc(C)nc2cc(C(C)c3ccc(Cl)cc3)nn12 (stereo partly drawn) [Example 2-22, 2-[1-(4-chlorophenyl)ethyl]-7-[(2R)-2-ethylpiperidin-1-yl]-5-methylpyrazolo[1,5-a]pyrimidine] | 70
CC(=O)N[C@@H]1CCN(c2cc(C)nc3cc(C(C)c4ccc(Cl)cc4)nn23)C1 (stereo partly drawn) [Example 2-23, N-[(3R)-1-{2-[1-(4-chlorophenyl)ethyl]-5-methylpyrazolo[1,5-a]pyrimidin-7-yl}pyrrolidin-3-yl]acetamide] | 2730
CCC(c1ccc(Cl)cc1)c1cc2nc(C)cc(N3CCCCC3CCO)n2n1 (stereo not drawn) [Example 3-1, 2-(1-{2-[1-(4-chlorophenyl)propyl]-5-methylpyrazolo[1,5-a]pyrimidin-7-yl}piperidin-2-yl)ethanol] | 8
CCC(c1ccc(Cl)cc1)c1cc2nc(C)cc(N3CCCC(F)(F)C3)n2n1 (stereo not drawn) [Example 3-2, 2-[1-(4-chlorophenyl)propyl]-7-(3,3-difluoropiperidin-1-yl)-5-methylpyrazolo[1,5-a]pyrimidine] | 14
Cc1cc(N2CCCCC2CCO)n2nc(C(c3ccc(Cl)cc3)C(C)C)cc2n1 (stereo not drawn) [Example 4-1, 2-(1-{2-[1-(4-chlorophenyl)-2-methylpropyl]-5-methylpyrazolo[1,5-a]pyrimidin-7-yl}piperidin-2-yl)ethanol] | 5
Cc1cc(N2CCCC(F)(F)C2)n2nc(C(c3ccc(Cl)cc3)C(C)C)cc2n1 (stereo not drawn) [Example 4-2, 2-[1-(4-chlorophenyl)-2-methylpropyl]-7-(3,3-difluoropiperidin-1-yl)-5-methylpyrazolo[1,5-a]pyrimidine] | 9
CCCC(c1ccc(Cl)cc1)c1cc2nc(C)cc(N3CCCCC3CCO)n2n1 (stereo not drawn) [Example 5-1, 2-(1-{2-[1-(4-chlorophenyl)butyl]-5-methylpyrazolo[1,5-a]pyrimidin-7-yl}piperidin-2-yl)ethanol] | 3
CCCC(c1ccc(Cl)cc1)c1cc2nc(C)cc(N3CCCC(F)(F)C3)n2n1 (stereo not drawn) [Example 5-2, 2-[1-(4-chlorophenyl)butyl]-7-(3,3-difluoropiperidin-1-yl)-5-methylpyrazolo[1,5-a]pyrimidine] | 7
Cc1cc(N2CCCCC2CCO)n2nc(Cc3cccc(C(F)(F)F)c3)cc2n1 (stereo not drawn) [Example 6-1, 2-(1-{5-methyl-2-[3-(trifluoromethyl)benzyl]pyrazolo[1,5-a]pyrimidin-7-yl}piperidin-2-yl)ethanol] | 1820
Cc1cc(N2CCCCC2CCO)n2nc(CC34CC5CC(CC(C5)C3)C4)cc2n1 (stereo not drawn) [Example 7-1, 2-{1-[5-methyl-2-(tricyclo[3.3.1.1^3′]dec-1-ylmethyl)pyrazolo[1,5-a]pyrimidin-7-yl]piperidin-2-yl}ethanol] | 1080

Other lines, results leading:

EC50 [nM] | SMILES
> 10000 | Cc1cc(N2CC[C@H]2C(N)=O)n2nc(C(C)c3ccc(C(F)(F)F)cc3)cc2n1 (stereo partly drawn) [Example 8-1, (2S)-1-(5-methyl-2-{1-[4-(trifluoromethyl)phenyl]ethyl}pyrazolo[1,5-a]pyrimidin-7-yl)azetidine-2-carboxamide]
87 | Cc1cc(N2CCCCC2CCO)n2nc(C(C)c3ccc(C(F)(F)F)cc3)cc2n1 (stereo not drawn) [Example 8-2, 2-[1-(5-methyl-2-{1-[4-(trifluoromethyl)phenyl]ethyl}pyrazolo[1,5-a]pyrimidin-7-yl)piperidin-2-yl]ethanol]
420 | Cc1cc(N2CCC3(COC3)C2)n2nc(C(C)c3ccc(C(F)(F)F)cc3)cc2n1 (stereo not drawn) [Example 8-3, 5-methyl-7-(2-oxa-6-azaspiro[3.4]oct-6-yl)-2-{1-[4-(trifluoromethyl)phenyl]ethyl}pyrazolo[1,5-a]pyrimidine]
827 | Cc1cc(N2CC3(CCOCC3)C2)n2nc(C(C)c3ccc(C(F)(F)F)cc3)cc2n1 (stereo not drawn) [Example 8-4, 5-methyl-7-(7-oxa-2-azaspiro[3.5]non-2-yl)-2-{1-[4-(trifluoromethyl)phenyl]ethyl}pyrazolo[1,5-a]pyrimidine]
365 | Cc1cc(N2CCC[C@@H](O)C2)n2nc(C(C)c3ccc(C(F)(F)F)cc3)cc2n1 (stereo partly drawn) [Example 8-5, (3R)-1-(5-methyl-2-{1-[4-(trifluoromethyl)phenyl]ethyl}pyrazolo[1,5-a]pyrimidin-7-yl)piperidin-3-ol]
509 | Cc1cc(NC2CC(F)C2)n2nc(C(C)c3ccc(C(F)(F)F)cc3)cc2n1 (stereo not drawn) [Example 8-6, N-(3-fluorocyclobutyl)-5-methyl-2-{1-[4-(trifluoromethyl)phenyl]ethyl}pyrazolo[1,5-a]pyrimidin-7-amine]
2000 | CC(=O)N[C@H]1CCN(c2cc(C)nc3cc(C(C)c4ccc(C(F)(F)F)cc4)nn23)C1 (stereo partly drawn) [Example 8-7, N-[(3S)-1-(5-methyl-2-{1-[4-(trifluoromethyl)phenyl]ethyl}pyrazolo[1,5-a]pyrimidin-7-yl)pyrrolidin-3-yl]acetamide]
746 | Cc1cc(NC2(C)CC2)n2nc(C(C)c3ccc(C(F)(F)F)cc3)cc2n1 (stereo not drawn) [Example 8-8, 5-methyl-N-(1-methylcyclopropyl)-2-{1-[4-(trifluoromethyl)phenyl]ethyl}pyrazolo[1,5-a]pyrimidin-7-amine]
344 | Cc1cc(N2CCCCC2CO)n2nc(C(C)c3ccc(C(F)(F)F)cc3)cc2n1 (stereo not drawn) [Example 8-9, [1-(5-methyl-2-{1-[4-(trifluoromethyl)phenyl]ethyl}pyrazolo[1,5-a]pyrimidin-7-yl)piperidin-2-yl]methanol]
